Entries after “also recorded” stand apart in the source; their conditions may differ.
Tests used:
[1] = test system: Acetyl CoA Carboxylase (ACC); assay: Phosphorylation of ACC in HepG2 cell (Western blot); assay type: cell-based, Human; conditions: HepG2, 50 uM, 5 minutes, P<0.01 or P<0.05
Procedure: (§1) Human hepatoma carcinoma cell strain (HepG2, purchased from the cell bank of Shanghai Institute of Cell Biology of Chinese Academy) was used. The Human hepatoma carcinoma cells were passaged by 0.1% pancreatin/0.02% EDTA digestion, and cultured in a incubator at 37° C. using MEM culture medium containing 10% FBS, under 5% CO2/95%.
(§2) HepG2 cells were cultured in 6-well plates for 48 hours until 70%-80% confluence. Serum starvation was started by changing medium with MEM containing 0.5% BSA. After starvation for 6 hours, cells were treated with the compounds (final concentration of 50 uM, containing 0.25% DMSO) for 5 minutes. The culture medium was discarded, and cells were harvested and washed for twice with pre-cooled PBS. The washing liquid was discarded, and any residual PBS was blotted dry. DMSO without heptacyclic compounds was used as control.
(§3) Extraction of total cellular protein: 150 μl/well homogenizing buffer (137 mM NaCl, 2.7 mM KCl, 1 mM MgCl2, 0.5 mM Na3VO4, 1% Triton X-100, 10% Glycerol, 20 mM Tris-HCl pH 7.8, 1 ug/ml Leupeptin, 0.2 mM PMSF, 10 mM NaF, 1 ug/ml Aprotinin, 1 mM EDTA, 1 mM DTT, 5 mM Sodium pyrophosphate, 1 mM Benzamidine) was added. Cells were collected into a 1.5 ml centrifuge tube using cell scraper. Cells were homogenized using sonicator (5 W of power) for 2 times (3 seconds per time), and shaken on a shaker for 1 hour. Supernatant (i.e., total cellular protein) was collected by centrifuging at 14000 rpm for 15 min at 4° C., and stored at −70° C. until use. After the protein concentration was determined by Bradford method, the supernatant was formulated as the loading sample with final concentration of 0.6 mg/ml. The whole preparation process was performed at 4° C.
(§4) Protein Electrophoresis: After being treated at 95° C. for 5 min, the loading sample was loaded (15 μg protein/lane). The protein was separated on 7.5% SDS-acrylamide gel for 1-2 hours under the voltage of 80-120 V.
(§5) Electrotransferring the protein and blocking the membrane: After electrophoresis was finished, the protein was transferred to PVDF membrane using semi-dry transferring slot based on 0.8 mA/cm^2 membrane area under the electric current of 80 mA for 2 hours. After that, the membrane was shaken for 2 hours with 7.5% skim milk/TTBS to block the membrane.
(§6) Antigen-antibody reaction: After the blocking process was finished, the membrane was incubated with primary antibody (antibody against phosphorylated ACC (P-ACC) and antibody against phosphorylated AMPK (P-AMPK), all purchased from Cell signaling (USA), with the working concentration of 1:1000) overnight at 4° C. The membrane was removed, and the primary antibody was recovered. The membrane was washed 5 times, each for 10 min in TTBS. The membrane was shaken for 2 hours with the secondary antibody (horseradish peroxidase-conjugated goat-anti-rabbit IgG antibody, purchased from Bio-rad (USA), with the working concentration of 1:5000) at room temperature. The secondary antibody was discarded. The membrane was washed 5 times, each for 10 min in TTBS in order to remove the unbound secondary antibody.
(§7) ECL exposure and development: Luminescent agents, ECL 1, 2, were mixed homogeneously, and incubated with the membrane for 3-5 min. The membrane was removed, wrapped in preservative film, and transferred into dark room for exposure. After exposure with X-film, the film was developed, washed, recorded and conserved.
(§8) Semi-quantitative analysis was performed through optical density scan using computer image analysis system. Grey level of the protein expression was calculated. The target grey level was divided by the grey level of internal standard, and a histogram was plotted, taking the normal group as 1 unit.

3T3-L1 adipocytes = assay: Glucose uptake in 3T3-L1 adipocytes (3H-labelled 2-deoxyglucose); assay type: cell-based
Procedure: The effect of the compounds on baseline or insulin-stimulated glucose uptake was evaluated, using the model of glucose uptake in 3T3-L1 adipocytes.
Adipose tissue is the target of glucose metabolism in vivo. The sensitivity for insulin and availability of glucose in adipose tissues are tightly associated with the insulin resistance. The transportation of glucose into adipocytes is a rate-limiting step for the glucose metabolism, and also an important indicator for evaluating the sensitivity for insulin in adipose tissue. 3T3-L1 is a kind of pre-adipocyte, and can become adipocyte after differentiated completely. Therefore, 3T3-L1 is a desirable model for the glucose transport.
Pre-adipocyte, 3T3-L1 was induced to differentiate under certain conditions. After 3T3-L1 differentiated into adipocytes, the compounds of interest with different concentrations and DMSO (used as control) can be added and incubated with the adipocytes for different periods, then the glucose uptake could be determined. For evaluating the ability for a compound to stimulate glucose uptake, the baseline and insulin-induced glucose uptake were determined, and the increase in baseline and insulin-induced glucose uptake upon treatment of the compounds as compared with control group (with 0.1% DMSO) is calculated, based on the ^3H-labelled 2-deoxyglucose inside the cells.
3T3-L1 cells purchased from Karolinska Institute (Sweden) were cultured in DMEM medium containing 10% fetal calf serum at 37° C., under 5% CO2. The cells were passaged every 3-4 days. The cells were inoculated into 12-well plate. Upon confluence, culture medium containing 0.5 mM 3-isobutyl-1-methylxanthine, 0.25 μM dexamethasone and 5 μg/ml insulin was added and cultured for 3 days. Then, the culture medium was replaced by a medium containing 5 μg/ml insulin and further cultured for 3 days. The insulin was removed, and the cells had differentiated completely into mature adipocytes after 2 days which could be used to determine the glucose uptake.
23 compounds chosen by the inventors were added into the culture medium of adipocytes in a dose of 10 μM. After incubation for 2 h, the effect of the compounds on glucose uptake in 3T3-L1 cells was observed. Culture medium without compounds was used as negative control. The control group only supplemented with insulin and the experiment group supplemented with compounds plus insulin were also employed to observe the effect of the compounds on glucose uptake.

[2] = test system: AMP-Activated Protein Kinase (AMPK); assay: Phosphorylation of AMPK in HepG2 cell (Western blot); assay type: cell-based, Human; conditions: HepG2, 50 uM, 5 minutes, P<0.01 or P<0.05
Procedure: as §1, §2, §3, §4, §5, §6, §7, §8

Structure (SMILES): COc1cc(C(=O)O)c2c(c1C)OC(=O)c1c(C)cc(O)c(C=O)c1O2 [Compound F7, 4-Formyl-3-hydroxy-8-methoxy-1,9-dimethyl-11-oxo-11H-dibenzo[b,e][1,4]dioxepine-6-carboxylic acid]
- Level of phosphorylation for ACC protein versus DMSO control [1]: improved significantly
- Glucose uptake, Mean, Compound + Insulin Group (Control Group = 1.000) (3T3-L1 adipocytes; 10 μM, 2 h incubation, with insulin, relative to control without insulin): 3.788
- fold induction at 10 µM (3T3-L1 adipocytes; Mus musculus, 3T3-L1, 2 h incubation, baseline (without insulin), relative to control, read-out: Glucose uptake, Mean, Compound Group (Control Group = 1.000)): 1.19
- Level of phosphorylation for AMPK protein versus DMSO control [2]: significant up-regulation; also recorded: increased significantly
